Read-outs that look alike come from different tables or passages of the source.

The test system of data set [1] is multiple myeloma cell line U266B1. The experiment in a line: U266 Cell Viability Assay. The format is cell-based, human. As to conditions: Homo sapiens, U-266, 48 hr. The gist of the method: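 Viability was measured by CellTiter-Glo luminescence after 48 h compound exposure at 37° C, 5% CO2. The cells were U266B1 multiple myeloma cells grown in RPMI 1640 plus 10% FBS. Where stereochemistry is not shown, values apply to the stereoisomer mixture.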

Data set [2] in a line: In Vitro Microsome Stability Assay (rat). The format is in vitro ADME. The gist of the method: (§1)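 Test article, added from a 0.25 mM DMSO stock, was incubated with liver microsomes (20 mg/mL stock) in 0.1 M potassium phosphate at 37° C, with the reaction started by NADPH. Samples were quenched with acetonitrile containing internal standard at 0 and 30 min and analysed by LC-MS/MS. Values are % remaining at 30 min versus 0 min, using IS-normalised AUC ratios.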

Data set [3] relates to PD1 signal sequence plus 10 amino acids fused to Gaussia Luciferase (PD1-ss+10aa/Gaussia Luciferase). Briefly: Dox Induced PD1-ss-Gluc Assay. It is filed as cell-based. To be noted: 24 hr, read-out: 24 hr Dox Inducible PD1ssGluc 293FRT/TO: Mean IC50. The essentials:
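Compound dilutions in DMSO/media containing doxycycline were applied to a stable, inducible 293 T-REx line carrying the luciferase fusion, then incubated at 37 °C, 5% CO2. Where stereochemistry is not drawn, values relate to isomer mixtures.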

A short description of data set [4]: In Vitro Microsome Stability Assay (monkey). The format is in vitro ADME. The gist of the method:
as §1

The test system of data set [5] is multiple myeloma cell line NCl-H929. Briefly: H929 Cell Viability Assay. As to conditions: Homo sapiens, NCI-H929, 48 h. The format is cell-based, human. The gist of the method: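 Viability was determined by CellTiter-Glo luminescence after a 48 h, 37 °C exposure of NCI-H929 cells to serial compound dilutions in medium containing 10% FBS. Where stereochemistry is not shown, values refer to a mix of stereoisomers.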

The nature of data set [6]: In Vitro Microsome Stability Assay (human). The format is in vitro ADME. The gist of the method:
as §1

Data set [7] deals with full length TNFα (amino acids 1-233) fused to Gaussia Luciferase. The experiment in a line: Dox Induced TNFα-FL-Gluc Assay. It is filed as cell-based. As to conditions: 24 hr, read-out: 24 hr Dox Inducible TNFaFLGluc 293FRT/TO: Mean IC50. The essentials:
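Compounds diluted in DMSO/medium with doxycycline were incubated at 37° C, 5% CO2 with 293 T-REx cells stably carrying a Tet-regulated TNFα(1-233)-Gaussia luciferase construct. Data for structures drawn without stereochemistry refer to stereoisomer mixtures.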

Data set [8] can be described thus: In Vitro Microsome Stability Assay (mouse). The format is in vitro ADME. The gist of the method: as §1
The mark [9] stands for this setting: U266, read-out: 48 hr U266 Viability Celltiter-Glo: Mean EC50.
The mark [10] stands for this setting: H929, read-out: 48 hr H929 Viability Celltiter-Glo: Mean EC50.

On to `CN(C)c1ccc(S(=O)(=O)N2CCCN(CC3CCCCC3)CCCN(S(=O)(=O)N3CCCCC3)C2)cc1` [B4, 4-{[7-(cyclohexylmethyl)-3-(piperidine-1-sulfonyl)-1,3,7-triazecan-1-yl]sulfonyl}-N,N-dimethylaniline], for which the concentration for a half-maximal effect (EC50) (commonly the concentration that produces a half-maximal response) in data set [1] (U266, Celltiter-Glo) was 16600 nM; in data set [5] (H929, Celltiter-Glo), greater than 25000 nM. Also, the “Liver Microsome Stability-% Left after 30 min w/ NADPH (%) Rat” value (“Liver Microsome Stability-% Left … (%) Rat” below) in data set [2] (rat liver microsomes, 30 min w/ NADPH) was determined as 2.79%. Moreover, the IC50 in data set [3] (Dox inducible, 293FRT/TO cells) is greater than 25000 nM; in data set [7] (Dox inducible, 293FRT/TO cells), greater than 25000 nM. Moreover, the “Liver Microsome Stability-% Left after 30 min w/ NADPH (%) Monkey” value (“Liver Microsome Stability-% Left … (%) Monkey” below) in data set [4] (monkey liver microsomes, 30 min w/ NADPH) is given as 1.7%. The “Liver Microsome Stability-% Left after 30 min w/ NADPH (%) Human” value (shortened to “Liver Microsome Stability-% Left … (%) Human”) in data set [6] (human liver microsomes, 30 min w/ NADPH) stood at 12.1%. Further, the “Liver Microsome Stability-% Left after 30 min w/ NADPH (%) Mouse” value (“Liver Microsome Stability-% Left … (%) Mouse” below) in data set [8] (mouse liver microsomes, 30 min w/ NADPH) is recorded as 2.21%.

As for `C=C1CN(S(=O)(=O)c2ccc(C)cc2)CCCN(C(=O)OCCC)CCCN(S(=O)(=O)c2ccc(N(C)C)cc2)C1` [A12, propyl 5-((4-(dimethylamino)phenyl)sulfonyl)-7-methylene-9-tosyl-1,5,9-triazacyclododecane-1-carboxylate], the 50% effective concentration (EC50) in data set [1] (setting [9]) and in data set [5] (setting [10]) was greater than 25000 nM each time. In addition, the “Liver Microsome Stability-% Left … (%) Rat” value in data set [2] (rat, 30 min, NADPH) is reported as 0.07%. Further, the values for the IC50 in data set [3] (293FRT/TO) and in data set [7] (293FRT/TO) were 858 nM and greater than 25000 nM, respectively. The “Liver Microsome Stability-% Left … (%) Monkey” value in data set [4] (monkey, 30 min, NADPH) is 0.22%. In addition, the “Liver Microsome Stability-% Left … (%) Human” value in data set [6] (human, 30 min, NADPH) is on record as 0.11%. Besides, the “Liver Microsome Stability-% Left … (%) Mouse” value in data set [8] (mouse, 30 min, NADPH) worked out at 0.1%.

With `C=C1CN(S(=O)(=O)c2ccc(N(C)C)cc2)CCCN(CC2CCCCC2)CCCN(S(=O)(=O)N2CCc3cc(F)ccc3C2)C1` [A59, 4-{[9-(cyclohexylmethyl)-5-[(6-fluoro-1,2,3,4-tetrahydroisoquinolin-2-yl)sulfonyl]-3-methylidene-1,5,9-triazacyclododecan-1-yl]sulfonyl}-N,N-dimethylaniline], the EC50 in data set [1] (setting [9]) was greater than 25000 nM; in data set [5] (setting [10]), 1440 nM. Further, in data set [2] (rat, 30 min, NADPH), the “Liver Microsome Stability-% Left … (%) Rat” value is on record as 3.9%. Also, the IC50 is 24.2 nM in data set [3] (293FRT/TO) and 616 nM in data set [7] (293FRT/TO). For the same compound, the “Liver Microsome Stability-% Left … (%) Monkey” value in data set [4] (monkey, 30 min, NADPH) turned out to be 1.94%. For the same compound, the “Liver Microsome Stability-% Left … (%) Human” value in data set [6] (human, 30 min, NADPH) stood at 1.89%. In data set [8] (mouse, 30 min, NADPH), the “Liver Microsome Stability-% Left … (%) Mouse” value worked out at 3.73%.

For `C=C1CN(S(=O)(=O)c2ccc(N(C)C)cc2)CCCN(CC2CCCCC2)CCCN(S(=O)(=O)N2CCc3c(Cl)cccc3C2)C1` [A54, 4-({5-[(5-chloro-1,2,3,4-tetrahydroisoquinolin-2-yl)sulfonyl]-9-(cyclohexylmethyl)-3-methylidene-1,5,9-triazacyclododecan-1-yl}sulfonyl)-N,N-dimethylaniline], the concentration for a half-maximal effect (EC50) was greater than 25000 nM in data set [1] (setting [9]) and 1910 nM in data set [5] (setting [10]). Further, the “Liver Microsome Stability-% Left … (%) Rat” value in data set [2] (rat, 30 min, NADPH) is 42.4%. Further, the IC50 worked out at 26.5 nM in data set [3] (293FRT/TO) and 952 nM in data set [7] (293FRT/TO). In data set [4] (monkey, 30 min, NADPH), the “Liver Microsome Stability-% Left … (%) Monkey” value worked out at 30.5%. For the same compound, the “Liver Microsome Stability-% Left … (%) Human” value in data set [6] (human, 30 min, NADPH) is listed as 33.8%. Besides, the “Liver Microsome Stability-% Left … (%) Mouse” value in data set [8] (mouse, 30 min, NADPH) is 34.6%.

For `C=C1CN(S(=O)(=O)c2ccc(N(C)C)cc2)CCCN(CC2CCCCC2)CCCN(S(=O)(=O)N2CC=C(c3cccc(Cl)c3)CC2)C1` [A69, 4-[(5-{[4-(3-chlorophenyl)-1,2,3,6-tetrahydropyridin-1-yl]sulfonyl}-9-(cyclohexylmethyl)-3-methylidene-1,5,9-triazacyclododecan-1-yl)sulfonyl]-N,N-dimethylaniline], the half-maximal effective concentration (EC50) in data set [1] (setting [9]) and in data set [5] (setting [10]) was greater than 25000 nM each time. The “Liver Microsome Stability-% Left … (%) Rat” value in data set [2] (rat, 30 min, NADPH) turned out to be 74.3%. The IC50 in data set [3] (293FRT/TO) is 136 nM; in data set [7] (293FRT/TO), greater than 25000 nM. Besides, in data set [4] (monkey, 30 min, NADPH), the “Liver Microsome Stability-% Left … (%) Monkey” value was found to be 58.2%. Further, the “Liver Microsome Stability-% Left … (%) Human” value in data set [6] (human, 30 min, NADPH) is given as 63%. Moreover, in data set [8] (mouse, 30 min, NADPH), the “Liver Microsome Stability-% Left … (%) Mouse” value was 64.6%.

The values are drawn from patent US11578055B2, “Triazacyclododecansulfonamide (“TCD”)-based protein secretion inhibitors” (KEZAR LIFE SCIENCES, priority 2018, dated 2023).
